# According to patent publication US20260034119A1, “5-METHOXY-N,N-[…][…], THEIR […], AND METHODS FOR TREATMENT OF NEUROLOGICAL, […], AND SUBSTANCE USE DISORDERS” (priority 2023, published 2026):
# Residue numbers refer to the chain shown, from its start. pEC50: −log10 of the molar value. “Also recorded” adds a separate entry of the source. Like-named read-outs stand apart in the source and are kept apart here.
# Experiments:
# human 5-HT1A [1] = molecular target: T1, human 5-HT1A (Homo sapiens, UniProt P08908); experiment: 5-HT1A-mediated cAMP reduction assay (GloSensor, HEK293-T)
# T1 sequence (P08908 1-422): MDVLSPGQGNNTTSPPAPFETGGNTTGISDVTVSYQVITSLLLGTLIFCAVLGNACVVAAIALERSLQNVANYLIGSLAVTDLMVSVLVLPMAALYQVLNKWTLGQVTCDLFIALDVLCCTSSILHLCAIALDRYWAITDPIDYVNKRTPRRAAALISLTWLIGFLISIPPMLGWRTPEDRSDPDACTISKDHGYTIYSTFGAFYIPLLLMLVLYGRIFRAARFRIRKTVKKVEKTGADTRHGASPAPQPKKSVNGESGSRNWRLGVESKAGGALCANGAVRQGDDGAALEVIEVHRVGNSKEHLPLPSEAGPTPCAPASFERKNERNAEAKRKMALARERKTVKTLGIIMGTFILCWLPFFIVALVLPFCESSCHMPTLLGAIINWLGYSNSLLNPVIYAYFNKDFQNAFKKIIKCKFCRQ
# 5-HT2A [2] = molecular target: T2, 5-HT2A (Homo sapiens, UniProt P28223)
# 5-HT1A [3] = molecular target: T3, 5-HT1A (Homo sapiens, UniProt P08908); experiment: BRET signaling assay: 5-HT1A-mediated activation of heterotrimeric Gi1 (TRUPATH, HEK293-T)
# 5-HT2B = 5-HT2B (Homo sapiens, UniProt P41595); experiment: IP1 functional assay 5-HT2B; assay type: cell-based; conditions: for Emax: read-out: 5-HT2B (IP1) Emax (%5-HT), Table 3
# 5-HT2A [4] = molecular target: T2, 5-HT2A; experiment: cell-based; set-up: expressed in transfected cells; host or cells: HEK293-T; conditions: for Emax: read-out: 5-HT2A (IP1) Emax (%5-HT)
# 5-HT2A V366N = molecular target: T4, 5-HT2A V366N (Homo sapiens, UniProt P28223, V366N); experiment: Gq BRET at mutant 5-HT2A V366N; assay type: cell-based
# T4 construct: expressed in transfected cells; host or cells: HEK293-T
# 5-HT1A N386V = molecular target: T5, 5-HT1A N386V (Homo sapiens, UniProt P08908, N386V); experiment: Gi1 BRET at mutant 5-HT1A N386V; assay type: cell-based
# T5 construct: expressed in transfected cells; host or cells: HEK293-T
# T5 sequence (P08908 1-422 N386V): T1 sequence (P08908 1-422) with N386V
# 5-HT2A [5] = molecular target: T2, 5-HT2A; experiment: cell-based; conditions: for EC50: EC50 (nM), Gq BRET, 5-HT2A WT
# 5-HT1A A365N = molecular target: T6, 5-HT1A A365N (Homo sapiens, UniProt P08908, A365N); experiment: Gi1 BRET at mutant 5-HT1A A365N; assay type: cell-based
# T6 construct: expressed in transfected cells; host or cells: HEK293-T
# T6 sequence (P08908 1-422 A365N): T1 sequence (P08908 1-422) with A365N
# human 5-HT1A [6] = molecular target: T1, human 5-HT1A; experiment: cell-based
# C57BL/6J mice = experiment: Social interaction test after chronic social defeat stress (CSDS); conditions: one s.c. administration
# [7] = Microsomal stability, human liver microsomes; assay type: in vitro ADME; conditions: versus the DMT analogs
# Procedure: Microsomal incubations were carried out in 96-well plates in 5 aliquots of 30 μL each (one for each time point). Liver microsomal incubation medium comprised of phosphate buffer (100 mM, pH 7.4), MgCl2 (3.3 mM), NADPH (3 mM), glucose-6-phosphate (5.3 mM), glucose-6 phosphate dehydrogenase (0.67 units/ml) with 0.42 mg of liver microsomal protein per ml. In the control reactions the NADPH-cofactor system was substituted with phosphate buffer. Test compounds (2 μM, final solvent concentration 1.6%) were incubated with microsomes at 37° C., shaking at 100 rpm. Each reaction was performed in duplicates. Five time points over 90 minutes were analyzed. The reactions were stopped by adding 5 volumes of methanol containing internal standard to incubation aliquots, followed by protein sedimentation by centrifuging at 5500 rpm for 4 minutes. Supernatants were analyzed using the HPLC system coupled with tandem mass spectrometer. The elimination constant (kel), half-life (t1/2) and intrinsic clearance (Clint) were determined in plot of […] versus time, using linear regression analysis.
# 5-HT1A [8] = molecular target: T3, 5-HT1A; experiment: cell-based
# 5-HT2B, sequence (P41595 whole entry, species assumed): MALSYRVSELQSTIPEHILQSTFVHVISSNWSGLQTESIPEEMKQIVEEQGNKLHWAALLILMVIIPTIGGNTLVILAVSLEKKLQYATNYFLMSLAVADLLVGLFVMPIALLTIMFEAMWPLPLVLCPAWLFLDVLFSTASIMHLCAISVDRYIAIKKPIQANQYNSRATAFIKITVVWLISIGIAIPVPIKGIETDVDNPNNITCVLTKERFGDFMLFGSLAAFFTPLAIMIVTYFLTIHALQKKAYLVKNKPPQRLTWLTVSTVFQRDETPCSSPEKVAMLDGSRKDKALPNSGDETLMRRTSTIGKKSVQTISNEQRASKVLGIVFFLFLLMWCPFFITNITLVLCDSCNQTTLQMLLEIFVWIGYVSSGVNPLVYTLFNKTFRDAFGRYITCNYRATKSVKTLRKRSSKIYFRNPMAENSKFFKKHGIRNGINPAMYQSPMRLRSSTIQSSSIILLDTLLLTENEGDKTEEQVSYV
# T2 sequence (P28223 whole entry): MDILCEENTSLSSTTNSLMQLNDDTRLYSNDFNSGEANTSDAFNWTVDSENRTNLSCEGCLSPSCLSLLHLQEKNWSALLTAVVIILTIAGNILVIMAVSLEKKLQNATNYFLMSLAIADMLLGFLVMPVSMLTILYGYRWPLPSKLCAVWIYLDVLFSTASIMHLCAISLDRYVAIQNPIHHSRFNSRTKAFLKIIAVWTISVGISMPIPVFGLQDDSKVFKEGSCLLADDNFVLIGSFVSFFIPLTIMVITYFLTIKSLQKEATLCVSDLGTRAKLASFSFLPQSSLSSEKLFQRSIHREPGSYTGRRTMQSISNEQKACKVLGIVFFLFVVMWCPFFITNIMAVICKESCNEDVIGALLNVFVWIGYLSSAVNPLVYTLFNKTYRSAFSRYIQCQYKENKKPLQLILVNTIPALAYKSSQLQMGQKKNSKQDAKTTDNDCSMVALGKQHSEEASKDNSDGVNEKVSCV
# T4 sequence (P28223 whole entry V366N): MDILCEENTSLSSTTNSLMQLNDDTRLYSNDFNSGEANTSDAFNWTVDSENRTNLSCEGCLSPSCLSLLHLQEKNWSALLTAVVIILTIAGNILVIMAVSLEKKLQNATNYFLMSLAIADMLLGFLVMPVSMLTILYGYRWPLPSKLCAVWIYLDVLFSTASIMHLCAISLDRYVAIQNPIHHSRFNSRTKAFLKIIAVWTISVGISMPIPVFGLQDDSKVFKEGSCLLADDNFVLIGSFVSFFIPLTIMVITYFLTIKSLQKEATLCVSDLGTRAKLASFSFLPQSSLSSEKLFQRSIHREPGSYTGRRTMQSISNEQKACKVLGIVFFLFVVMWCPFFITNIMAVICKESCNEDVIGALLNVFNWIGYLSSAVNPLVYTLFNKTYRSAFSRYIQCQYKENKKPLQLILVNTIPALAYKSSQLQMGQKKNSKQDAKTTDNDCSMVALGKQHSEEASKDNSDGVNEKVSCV
structure (smiles),measurement,setting,value
"NCCc1c[nH]c2ccc(O)cc12 [Compound 5-HT, 5-hydroxytryptamine, reference compound]",Normalized (%5HT) Top Mean Gio(cAMP) 1A,human 5-HT1A [1]; Table 2,100.0 %5HT
same,Efficacy as %5HT 5-HT1A cAMP,"human 5-HT1A [1]; Table 6, commercial ligands",100.0 %5HT
same,Normalized (%5HT) Top Mean BRET Gq-2A,5-HT2A [2]; Table 2,100.0 %5HT
same,Efficacy as %5HT 5-HT2A BRET Gq,"5-HT2A [2]; Table 6, commercial ligands",100.0 %5HT
same,Normalized (%5HT) Top Mean BRET Gi1-1A,5-HT1A [3]; Table 2,100.0 %5HT
same,Efficacy as %5HT 5-HT1A BRET Gi1,"5-HT1A [3]; Table 6, commercial ligands",100.0 %5HT
"CCCN(C)CCc1c[nH]c2ccc(OC)cc12 [Compound 10, 5-MeO-MPT]",pEC50,5-HT2B,7.00
same,Emax,5-HT2B,61%
same,pEC50,5-HT2A [4],7.10
same,Emax,5-HT2A [4],89%
"CCCN(CCC)CCc1c[nH]c2ccc(OC)cc12 [Compound 13, 5-methoxy-N,N-dipropyl-tryptamine]",pEC50,5-HT2B,7.12
same,Emax,5-HT2B,108%
same,pEC50,5-HT2A [4],7.09
same,Emax,5-HT2A [4],94%
"COc1ccc2[nH]cc(CCN3CCCC3)c2c1 [Compound 18, 5-methoxy-N,N-pyrrolidinyl-tryptamine]",pEC50,5-HT2A V366N,7.26
same,pEC50,5-HT1A N386V,7.60
same,selectivity for 5-HT1A>5-HT2A,5-HT1A [3]; 5-HT1A Gi BRET vs 5-HT2A Gq BRET,> 38 fold
same,EC50,"5-HT1A [3]; EC50 (nM), Gi1 BRET, 5-HT1A WT",2.13 nM
same,pEC50,5-HT1A [3]; Gi BRET EC50,8.68
same,increase in 5-HT1A>5-HT2A selectivity,"5-HT1A [3]; cyclization of the amine moiety, relative to 5-MeO-DMT",~38 fold
same,EC50,5-HT2A [5],81.5 nM
same,EC50,"5-HT1A A365N; EC50 (nM), Gi1 BRET, 5-HT1A A365N^6.55",28.9 nM
"COc1ccc2[nH]cc(CCN(C)C)c2c1F [Compound 25, 2-(4-fluoro-5-methoxy-1H-indol-3-yl)-N,N-dimethylethane-1-amine]",pEC50,human 5-HT1A [6],9.73
same,pEC50,5-HT2A V366N,6.41
same,pEC50,5-HT1A N386V,8.43
same,decrease in potency at 5-HT2A,5-HT2A [2]; relative to 5-MeO-DMT,3 fold
same,Efficacy as %5HT (SEM) 5-HT1A BRET Gi1,5-HT1A [3],103.5 1.59) %5HT
same,increase in signaling potency at 5-HT1A,5-HT1A [3],14 fold
same,EC50,5-HT1A [3]; EC50 (nM),1.77 nM
same,EC50,5-HT1A [3]; EC50 (nM) 5-HT1A BRET Gi1,1.77 nM
same,pEC50,5-HT2A [5],7.06
same,EC50,5-HT2A [5],86.5 nM
same,pEC50,5-HT1A A365N,7.70
"CCN(C)CCc1c[nH]c2ccc(OC)c(F)c12 [Compound 26, N-ethyl-2-(4-fluoro-5-methoxy-1H-indol-3-yl)-N-methylethan-1-amine]",pEC50,5-HT2B,7.18
same,Emax,5-HT2B,39%
same,pEC50,human 5-HT1A [6],9.50
same,general locomotion at the social interaction test,C57BL/6J mice; mice,no effects on general locomotion
same,corner time (anxiety-like behavior),C57BL/6J mice; stressed mice,rescued
same,social interaction deficit induced by chronic social defeat stress,"C57BL/6J mice; stressed mice, test 24 hr post drug, listed as 4-F, 5-MeO-MET",rescued; also recorded: rescuing the social interaction deficit
same,microsomal stability in human microsomes,[7],greater stability in human microsomes versus the DMT analogs
same,pEC50,5-HT2A [5],7.00
same,pEC50,5-HT2A [4],6.64
same,Emax,5-HT2A [4],90%
same,pEC50,5-HT1A [8],8.75
"CCCN(CC)CCc1c[nH]c2ccc(OC)c(F)c12 [Compound 29, N-ethyl-(2-(4-fluoro-5-methoxy-1H-indol-3-yl)ethyl)propan-1-amine]",pEC50,human 5-HT1A [6],9.82
same,microsomal stability in human microsomes,[7],greater stability in human microsomes versus the DMT analogs
same,pEC50,5-HT2A [5],6.81
same,pEC50,5-HT1A [8],9.02
